Among the data in PMC7054317, “Mammalian ALKBH1 serves as an N^6-mA demethylase of unpairing DNA” (Cell Research, 2020) are Kd values, retold here.

One may read the Kd as the constant that tells how readily two partners part at equilibrium.

For test [1], the target named is T1, ALKBH1 in full length (mouse) (Mus musculus, UniProt P0CB42).
T1 construct: full length, residues 1-389, N-terminal His-tag retained, E. coli BL21(DE3), modified pRSFDuet-1
T1 sequence (P0CB42 1-389): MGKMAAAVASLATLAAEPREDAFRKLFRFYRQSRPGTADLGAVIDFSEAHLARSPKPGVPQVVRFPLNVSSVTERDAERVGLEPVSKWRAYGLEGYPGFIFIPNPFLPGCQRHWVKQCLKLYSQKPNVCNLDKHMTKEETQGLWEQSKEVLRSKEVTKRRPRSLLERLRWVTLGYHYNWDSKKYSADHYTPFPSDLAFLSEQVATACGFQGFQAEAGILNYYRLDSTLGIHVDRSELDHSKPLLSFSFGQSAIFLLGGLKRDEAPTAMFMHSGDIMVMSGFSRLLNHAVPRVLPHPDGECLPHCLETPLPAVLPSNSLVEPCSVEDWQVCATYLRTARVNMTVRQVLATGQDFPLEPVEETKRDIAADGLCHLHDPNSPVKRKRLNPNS
Briefly: isothermal titration calorimetry. It is filed as binding. In general terms: Isothermal titration calorimetry measures the heat released or taken up as one component is titrated into another.

A further test addresses T2, ALKBH1_1–359 (mouse) (Mus musculus, UniProt P0CB42).
T2 construct: gene Alkbh1; C-terminally truncated, residues 1-359, His-tag removed with PreScission protease, E. coli BL21(DE3); residues 20-358 modelled in the crystal
T2 sequence (P0CB42 1-359): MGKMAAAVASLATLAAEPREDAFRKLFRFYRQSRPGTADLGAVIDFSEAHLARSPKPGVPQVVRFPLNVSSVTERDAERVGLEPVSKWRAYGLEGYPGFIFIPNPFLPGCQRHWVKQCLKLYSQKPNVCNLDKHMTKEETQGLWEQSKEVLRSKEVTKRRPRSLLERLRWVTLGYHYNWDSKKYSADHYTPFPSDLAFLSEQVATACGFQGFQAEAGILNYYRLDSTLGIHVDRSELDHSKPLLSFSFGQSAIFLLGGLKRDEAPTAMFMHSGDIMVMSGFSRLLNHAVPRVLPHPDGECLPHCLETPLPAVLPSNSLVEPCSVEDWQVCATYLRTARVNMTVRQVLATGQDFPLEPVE
Briefly: isothermal titration calorimetry. It is filed as binding.

Take `O=C(O)CNC(=O)C(=O)O` [NOG]: the Kd is 1800 nM in test [1] and 2500 nM on ALKBH1_1–359 (mouse).
